Paper PMC6934184, “Selective DNA-PKcs inhibition extends the therapeutic index of localized radiotherapy and chemotherapy” (The Journal of Clinical Investigation, 2019)

Biological target: T1, SIK3 (Homo sapiens, UniProt Q9Y2K2)
T1 construct: purchased Thermo Fisher Scientific (Life Technologies) SelectScreen
Test: SelectScreen LanthaScreen
Format: binding
Conditions: 1 µM
Summary of the method: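 SelectScreen broad panel; activity (Z'LYTE, Adapta) plus binding formats. ATP: Km app for CSF1R Z'LYTE; 10 for CAMK1 Adapta. Readout = % per kinase.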

T1 sequence (Q9Y2K2 whole entry): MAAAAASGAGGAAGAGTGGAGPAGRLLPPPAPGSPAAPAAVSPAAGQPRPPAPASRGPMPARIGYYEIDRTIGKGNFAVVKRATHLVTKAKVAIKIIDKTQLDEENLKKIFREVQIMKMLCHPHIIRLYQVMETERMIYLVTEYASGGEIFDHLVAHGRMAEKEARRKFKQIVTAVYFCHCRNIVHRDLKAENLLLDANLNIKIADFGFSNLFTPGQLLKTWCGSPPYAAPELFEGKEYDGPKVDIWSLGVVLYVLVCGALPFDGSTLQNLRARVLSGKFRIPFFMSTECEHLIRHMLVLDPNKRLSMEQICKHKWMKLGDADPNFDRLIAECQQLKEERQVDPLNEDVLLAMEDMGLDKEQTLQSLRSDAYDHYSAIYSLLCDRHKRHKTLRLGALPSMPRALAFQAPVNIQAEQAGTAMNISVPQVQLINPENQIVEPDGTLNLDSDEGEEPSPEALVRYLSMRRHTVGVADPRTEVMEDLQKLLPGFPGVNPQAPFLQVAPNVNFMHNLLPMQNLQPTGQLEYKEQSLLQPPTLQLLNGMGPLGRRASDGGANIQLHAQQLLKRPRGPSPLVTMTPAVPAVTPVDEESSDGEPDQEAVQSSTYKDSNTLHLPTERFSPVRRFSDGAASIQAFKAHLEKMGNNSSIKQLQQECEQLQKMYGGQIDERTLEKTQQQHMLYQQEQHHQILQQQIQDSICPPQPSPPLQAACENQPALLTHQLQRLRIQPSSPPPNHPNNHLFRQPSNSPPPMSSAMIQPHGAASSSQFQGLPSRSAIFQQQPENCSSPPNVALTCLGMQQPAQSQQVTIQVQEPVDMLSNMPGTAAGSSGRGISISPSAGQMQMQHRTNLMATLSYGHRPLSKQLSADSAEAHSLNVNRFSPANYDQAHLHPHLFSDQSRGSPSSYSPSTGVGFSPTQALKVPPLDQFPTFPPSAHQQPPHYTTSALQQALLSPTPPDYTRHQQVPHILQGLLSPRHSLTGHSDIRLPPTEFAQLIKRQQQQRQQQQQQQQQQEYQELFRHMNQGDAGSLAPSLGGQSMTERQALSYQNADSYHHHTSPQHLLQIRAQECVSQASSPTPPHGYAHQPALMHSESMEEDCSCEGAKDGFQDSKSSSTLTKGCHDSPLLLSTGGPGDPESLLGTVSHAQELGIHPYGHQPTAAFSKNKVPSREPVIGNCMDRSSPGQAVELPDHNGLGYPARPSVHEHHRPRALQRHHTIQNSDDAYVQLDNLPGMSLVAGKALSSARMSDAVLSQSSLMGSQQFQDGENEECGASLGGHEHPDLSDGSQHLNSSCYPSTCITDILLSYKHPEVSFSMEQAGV

With `CN(C(=O)CN1CCOCC1)c1ccc2sc3c(-c4cccc5c(=O)cc(N6CC7CCC(C6)O7)oc45)cccc3c2c1` [NU5455] the “% displacement” value was 16.1%.
